Legend:
BREC [1] = assay: Cell migration assay (modified Boyden chamber); format: cell-based, bovine; settings: VEGF 0.6 nM
Experimental: Primary cultures of bovine retinal endothelial cells (BREC) were isolated and cultured as described (17). […] A modified Boyden chamber migration assay was performed by using BREC (25). The top and bottom surface of the chamber membrane was coated with collagen I. […] Cells that migrated to the bottom of the chamber were enumerated by counting SYTOX green (Molecular Probes) nucleic acid-stained cells.

E2F = E2F luciferase assay in BREC; format: cell-based, bovine
Experimental: Luciferase reporter constructs (Mercury Cell Cycle Profiling System, CLONTECH) were introduced into cells with LipofectAMINE reagent (Life Technologies, Rockville, Md.) as instructed by the manufacturer. Luciferase activity was measured by using the Dual-Luciferase Reporter Assay system (Promega).

Rb = Rb phosphorylation in BREC (phospho-specific antibodies); format: cell-based, bovine; settings: time-dependent, all sites (S249/T242, S780, S795, S807/S811, S821)
BREC [2] = assay: Cell growth assay (DNA content, VEGF-induced proliferation); format: cell-based, bovine; settings: VEGF 0.6 nM, after 4 days
Experimental: Primary cultures of bovine retinal endothelial cells (BREC) were isolated and cultured as described (17). Only cells from passages 2-7 were used for the experiments.
BREC were plated onto 12-well culture plates and incubated overnight in DMEM containing 10% calf serum, after which the cells were infected with adenovirus (23). After incubation for 4 days at 37° C. with or without VEGF (0.6 nM), the cells were lysed in 0.1% SDS, and the DNA content was measured by means of Hoechst-33258 dye and a fluorometer (model TKO-100, Hoefer). E2 promoter binding factor (E2F) decoys were used as described (24).

PKCβ2 and Rb = assay: Association of PKCβ2 with Rb in BREC (immunoprecipitation / immunoblot); format: cell-based, bovine
BREC [3] = settings: VEGF 0.6 nM, sentence cites ref. (2); cited from earlier work

COC[C@H]1OC(=O)c2coc3c2[C@@]1(C)C1=C(C3=O)[C@@H]2CCC(=O)[C@@]2(C)C[C@H]1OC(C)=O [wortmannin]
inhibition of VEGF-induced BREC migration (BREC [1]): 41%

VEGF
increase of E2F activity (E2F): 8.6 fold | increase of migration of BREC (BREC [1]): 2 fold | increase of phosphorylation of Rb (Rb): up to 3 fold | increase in BREC total DNA content (BREC [2]): 2 fold | increase of phosphorylated Rb levels (pS780) in PKCβ2-Rb complex (PKCβ2 and Rb; VEGF 0.6 nM, overexpression of PKCβ2): 2- to 3 fold | increase of amount of PKCβ2-associated Rb protein (PKCβ2 and Rb; VEGF 0.6 nM, immunoprecipitation with antibodies to Rb, immunoblot PKCβ2): 1.7 fold | increase of association of PKCβ2 with Rb (PKCβ2 and Rb; immunoprecipitation with anti-PKCβ2 antibody, Rb immunoblot): 2.2 fold

COc1cccc(-c2cc(=O)c3ccccc3o2)c1N [PD98059]
effect on VEGF-increased BREC migration (BREC [1]): inhibited | effect on VEGF's mitogenic activity (BREC [3]): blocked VEGF's mitogenic activity completely

CN(C)CCCn1cc(C2=C(c3c[nH]c4ccccc34)C(=O)NC2=O)c2ccccc21 [GFX]
effect on VEGF-increased BREC migration (BREC [1]): inhibited | effect on VEGF's mitogenic activity (BREC [3]): blocked VEGF's mitogenic activity completely
